Source: patent US6639130B2, “Plant sterol reductases and uses thereof” (The General Hospital Corporation, priority 1996, dated 2003)
“Also recorded” adds a separate entry of the source.

Assays:
wild-type seedlings = experiment: Treatment of wild-type seedlings with synthetic cytokinin (phenocopy of ell mutant morphology); assay type: in vivo, Arabidopsis; settings: 30 μM; in the dark or light
Description: From left to right in both FIGS. 1A-1B: wild-type plant; wild-type plant+2ip; ell; and ell+2ip.

ell seedlings = experiment: Exogenous feeding of brassinolide to ell seedlings germinated on agar plates; assay type: in vivo, Arabidopsis; settings: 1 μM in growth medium (agar plates); dark or light
Protocol: FIGS. 13A-13B are photographs showing that the ell phenotype was not corrected by exogenous feeding of brassinolide (1 μM) in either dark (FIG. 13A) or light (FIG. 13B). From left to right in FIGS. 13A-13B: wild-type; ell; wild-type+brassinolide; and ell+brassinolide.
To determine whether the ell mutant phenotype is corrected by exogenous feeding of brassinolide, we germinated ell seedlings on agar plates containing 1 μM brassinolide or 1 μM 24-epibrassinolide (Li et al., Science 272: 398, 1996). […] Thus, it appears that steroid compounds other than BRs are needed to restore an ell mutant to a normal growth and development phenotype, as reflected by the pleiotropic phenotypes such as stunted roots (FIG. 2) and impaired embryogenesis (FIGS. 7A-7F).

Row | SMILES | ell mutant seedling morphology phenocopied in wild-type seedlings (wild-type seedlings) | correction of the ell mutant phenotype by exogenous feeding (ell seedlings)
1 | CC(C)=CCNc1ncnc2nc[nH]c12 [2ip, dimethylallylamino-purine] | phenocopied | –
2 | CC(C)[C@H](C)[C@@H](O)[C@H](O)[C@@H](C)[C@H]1CC[C@H]2[C@@H]3COC(=O)[C@H]4C[C@H](O)[C@H](O)C[C@]4(C)[C@H]3CC[C@]12C [brassinolide] | – | not corrected; also recorded: did not alter the mutant phenotype
3 | CC(C)[C@@H](C)[C@@H](O)[C@H](O)[C@@H](C)[C@H]1CC[C@H]2[C@@H]3COC(=O)[C@H]4C[C@H](O)[C@H](O)C[C@]4(C)[C@H]3CC[C@]12C [24-epibrassinolide] | – | did not alter the mutant phenotype
